Measurements published in US20240376126A1, “PRMT5 INHIBITOR AND THE USE THEREOF” (CYTOSINLAB THERAPEUTICS CO., LTD., priority 2022, published 2024).

Assays:
[1] = test system: HCT116-MTAP-KO (MTAP null) cells; assay: Proliferation inhibition of HCT116 MTAP-KO cells in vitro (CellTiter Glo, 6 days); assay type: cell-based; conditions: HCT116-MTAP null, 144 h, read-out: Cell proliferation inhibition rate HCT116-MTAP null IC50 (nm)
[2] = test system: HCT116 MTAP WT cells; assay: Proliferation inhibition of HCT116 cells in vitro (CellTiter Glo, 6 days); assay type: cell-based; conditions: Homo sapiens, HCT-116, 144 h, read-out: Cell proliferation inhibition rate HCT116 MTAP WT IC50 (nm)

IC50 [1] [nM]	IC50 [2] [nM]	Compound
< 100	1000 to 10000	Cc1ncn2c1c(N)nc1cc(F)c(C(=O)N(Cc3cn4cc(C(F)(F)F)ccc4n3)CC(C)C)cc12 [Example 282]
100 to 1000	1000 to 10000	CCN(Cc1cn2ccccc2n1)C(=O)c1cc2c(cc1F)nc(N)c1c(C)ncn12 [Example 274]
< 100	1000 to 10000	CCN(C(=O)c1cc2c(cc1F)nc(N)c1cnn(C)c12)C(C)c1cn2ccccc2n1 (centres unmarked) [Example 10]
100 to 1000	1000 to 10000	CCN(Cc1cn2cc(-c3cnn(C)c3)ccc2n1)C(=O)c1cc2c(cc1F)nc(N)c1cnc(C)n12 [Example 247]
100 to 1000	1000 to 10000	CCN(Cc1cc2ccccn2n1)C(=O)c1ccc2nc(N)c3c(cnn3C)c2c1 [Example 118]
100 to 1000	1000 to 10000	Cc1ncc2c(N)nc3cc(F)c(C(=O)N(Cc4cc5c(cn4)COC5)c4cnn(C)c4)cc3n12 [Example 211]
< 100	1000 to 10000	CC(C)CN(Cc1cn2cc(C(F)(F)F)ccc2n1)C(=O)c1ccc2nc(N)c3c(c2c1)COC3C (centres unmarked) [Example 52]
< 100	1000 to 10000	CCN(Cc1cn2cc(F)ccc2n1)C(=O)c1cc2c(cc1F)nc(N)c1c(C)ncn12 [Example 267]
< 100	1000 to 10000	Cc1cc(NC(=O)C(=O)N(Cc2cn3cc(C(F)(F)F)ccc3n2)c2cn(C)nc2C)cnc1N [Example 108]
1000 to 10000	1000 to 10000	C[C@H]1OCc2c1c(N)nc1ccc(C(=O)N(Cc3cn4cc(C(F)(F)F)ccc4n3)c3cnn(C)c3)cc21 [Example 48]
< 100	1000 to 10000	Cc1nn(C)cc1N(Cc1nc2ccccn2c1F)C(=O)c1ccc2nc(N)c3c(c2c1)COC3 [Example 96]
100 to 1000	1000 to 10000	CC(c1ncccn1)N(Cc1nc2ccccn2n1)C(=O)c1ccc2nc(N)c3c(c2c1)CCC3 (centres unmarked) [Example 155]
< 100	1000 to 10000	Cc1ccc2nc(CN(C(=O)c3cc4c5c(c(N)nc4cc3F)COC5)c3cnn(C)c3)cn2c1 [Example 87]
100 to 1000	1000 to 10000	CCN(Cc1cn2cc(C(F)(F)F)ccc2n1)C(=O)c1ccc2nc(N)c3c(c2c1)COC3C (centres unmarked) [Example 51]
< 100	1000 to 10000	[2H]C([2H])([2H])N(Cc1cn2ccccc2n1)C(=O)c1cc2c(cc1F)nc(N)c1cnn(C)c12 [Example 37]
100 to 1000	1000 to 10000	CCN(Cc1cn2c(C)cccc2n1)C(=O)c1cc2c(cc1F)nc(N)c1c(C)ncn12 [Example 272]
< 100	1000 to 10000	CCN(C(=O)c1cc2c(cc1F)nc(N)c1cnc(C)n12)C1COc2cc(C(F)(F)F)ccc21 (centres unmarked) [Example 222]
100 to 1000	1000 to 10000	CCN(Cc1cn2cc(CCN3CCOCC3)ccc2n1)C(=O)c1cc2c(cc1F)nc(N)c1cnc(C)n12 [Example 217]
< 100	1000 to 10000	COCCN(Cc1cn2ccccc2n1)C(=O)c1cc2c(cc1F)nc(N)c1cnn(C)c12 [Example 11]
< 100	1000 to 10000	COCC(C)N(Cc1cn2ccccc2n1)C(=O)c1cc2c(cc1F)nc(N)c1c(C)ncn12 (centres unmarked) [Example 271]
100 to 1000	1000 to 10000	Cn1ncc2c(N)nc3cc(F)c(C(=O)N(Cc4cn5ccccc5n4)C4COC4)cc3c21 [Example 9]
< 100	1000 to 10000	Cc1ncn2c1c(N)nc1ccc(C(=O)N(Cc3cn4cc(C(F)(F)F)ccc4n3)CC(C)C)cc12 [Example 299]
< 100	1000 to 10000	Cc1ncc2c(N)nc3cc(F)c(C(=O)N(Cc4cn5cc(C(F)(F)F)ccc5n4)c4ccnn4C)cc3n12 [Example 239]
< 100	1000 to 10000	CCc1nn(C)cc1N(Cc1cn2cc(C(F)(F)F)ccc2n1)C(=O)c1ccc2nc(N)c3c(c2c1)COC3 [Example 97]
100 to 1000	1000 to 10000	Cc1ncn2c1c(N)nc1cc(F)c(C(=O)N(Cc3cn4ccccc4n3)c3cnn(C)c3)cc12 [Example 257]
